The text below walks through data of patent US20040180953A1, “Crystalline form of phenylethanolamine, the preparation thereof and pharmaceutical compositions comprising the same” (priority 2001, published 2004).

Where a name gives a salt, the structure may show the parent alone. A value given as a limit tells only on which side of the number the result lay.

Common to all, as to type: physicochemical
Data set [1] can be described thus: Thermodynamic stability of the polymorphic forms maintained in solution or suspension. The settings on record: room temperature, or more generally less than or equal to 70° C.; whatever the solvent; hydrochloride. The protocol:
Furthermore, in addition to the possibility of having a purer and more homogeneous product, the B form can be obtained with better production efficiency, both with regard to crystallization and with regard to filtration and drying, in particular when it is prepared in propan-2-ol.

A short description of data set [2]: Drying comparison of wet filtration cake in an agitated filter drier. The protocol:
The drying, in an agitated filter drier, of a wet filtration cake of SR58611A of A form results, in less than two hours, in a change in crystalline form and in the production of a cake composed of 90% of C form. To return to the A form, it is then necessary to continue the drying at a temperature of greater than 60° C. with agitation for approximately 48 h. […] Furthermore, the shape of the crystals obtained (thick hexagonal plates) makes it possible to reduce the residual moisture content of the filtration cake to contents of less than 20% and in fact facilitates the drying of the product for the purpose of its use as medicamental active principle.

A short description of data set [3]: Kinetic conversion of SR58611A polymorphic mixture to B form in propan-2-ol suspension. The method, then: Polymorphic SR58611 hydrochloride (4.46 g) is suspended at ambient temperature in 0.3 litre of propan-2-ol. After maintaining for 70 h under isothermal conditions, the suspension is composed of SR58611A hydrochloride, B form, >96%. IR spectrum and X-ray diffraction are in agreement. Polymorphic SR58611 hydrochloride (95.2 g) is suspended at 70° C. in 0.3 litre of propan-2-ol. After maintaining for 12 h 30 under isothermal conditions, the suspension is composed of SR58611 hydrochloride, B form, >98%. IR spectrum and X-ray diffraction are in agreement.

In the case of `CCOC(=O)COc1ccc2c(c1)C[C@@H](NC[C@H](O)c1cccc(Cl)c1)CC2.Cl` [A form, ethyl [(7S)-7-[(2R)-2-(3-chlorophenyl)-2-hydroxyethylamino]-5,6,7,8-tetrahydronaphth-2-yloxy]-acetate hydrochloride], the “thermodynamic stability relative to the other polymorphs” value in data set [1] was “end up by being converted to the B form”. The “C form content of the cake after change in crystalline form on drying” value in data set [2] (agitated filter drier, wet filtration cake, in less than two hours) came out at 90%. In addition, the “further drying time needed to return to the A form” value in data set [2] (drying at greater than 60° C. with agitation) is “approximately 48 h”.
With `CCOC(=O)COc1ccc2c(c1)C[C@@H](NC[C@H](O)c1cccc(Cl)c1)CC2.Cl` [B form, ethyl [(7S)-7-[(2R)-2-(3-chlorophenyl)-2-hydroxyethylamino]-5,6,7,8-tetrahydronaphth-2-yloxy]-acetate hydrochloride], the “thermodynamic stability relative to the other polymorphs” value in data set [1] is “the most thermodynamically stable form”. For the same compound, in data set [2] (drying of filtration cake), the “change of crystalline form on drying” value is “not changing crystalline form on drying”. In data set [2] (thick hexagonal plate crystals), the “residual moisture content of the filtration cake” value was “less than 20%”.
As for `CCOC(=O)COc1ccc2c(c1)C[C@@H](NC[C@H](O)c1cccc(Cl)c1)CC2.Cl` [C form, ethyl [(7S)-7-[(2R)-2-(3-chlorophenyl)-2-hydroxyethylamino]-5,6,7,8-tetrahydronaphth-2-yloxy]-acetate hydrochloride], the “thermodynamic stability relative to the other polymorphs” value in data set [1] was “end up by being converted to the B form”.
Consider `CCOC(=O)COc1ccc2c(c1)C[C@@H](NC[C@H](O)c1cccc(Cl)c1)CC2` [Polymorphic SR58611 hydrochloride, N-[(2S)-7-ethoxycarbonylmethoxy-1,2,3,4-tetrahydronaphth-2-yl]-(2R)-(3-chlorophenyl)-2-hydroxyethanamine hydrochloride], for which the “B form content of the suspension after conversion” value in data set [3] (suspended at 70° C. in propan-2-ol, 12 h 30 isothermal) is above 98%; in data set [3] (suspended at ambient temperature in propan-2-ol, 70 h isothermal), above 96%.
